Source: patent US6737383B1, “Herbicidal oxadiazolidines” (priority 1999, dated 2004)

Assays:
pigweed = assay: Test B pre/postemergence pigweed; assay type: in vivo, Amaranthus retroflexus
Outline: (§1)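 Test chemicals in a non-phytotoxic solvent mixture with surfactant were sprayed preemergence onto planted seeds and postemergence onto plants 2 to 18 cm tall (1- to 4-leaf stage). After twelve to sixteen days in a greenhouse, injury was visually rated against untreated controls from 0 (no effect) to 10 (complete control).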

morningglory = assay: Test B pre/postemergence morningglory; assay type: in vivo, Ipomoea hederacea
Outline: as §1

crabgrass = assay: Test B pre/postemergence crabgrass; assay type: in vivo, Digitaria sanguinalis
Outline: as §1

cocklebur = assay: Test B pre/postemergence cocklebur; assay type: in vivo, Xanthium strumarium
Outline: as §1

corn = assay: Test B pre/postemergence corn; assay type: in vivo, Zea mays
Outline: as §1

soybean = assay: Test B pre/postemergence soybean; assay type: in vivo, Glycine max
Outline: as §1

bamyardgrass = assay: Test B flood test barnyardgrass; assay type: in vivo, Echinochloa crus-galli
Outline: (§2)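 Read-out is a visual response score from 0 (no effect) to 10 (complete control), assigned by comparison with untreated controls. Treatment was applied at the 2-leaf stage, and plants stayed in the greenhouse for twelve to sixteen days before scoring.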

wild oat = assay: Test B pre/postemergence wild oat; assay type: in vivo, Avena fatua
Outline: as §1

rape = assay: Test B pre/postemergence rape; assay type: in vivo, Brassica napus
Outline: as §1

velvetleaf = assay: Test B pre/postemergence velvetleaf; assay type: in vivo, Abutilon theophrasti
Outline: as §1

sugar beet = assay: Test B pre/postemergence sugar beet; assay type: in vivo, Beta vulgaris
Outline: as §1

rice = assay: Test B flood test rice; assay type: in vivo, Oryza sativa
Outline: as §2

duck salad = assay: Test B flood test duck salad; assay type: in vivo, Heteranthera limosa
Outline: as §2

wheat = assay: Test B pre/postemergence wheat; assay type: in vivo, Triticum aestivum
Outline: as §1

purple nutsedge = assay: Test B pre/postemergence purple nutsedge; assay type: in vivo, Cyperus rotundus
Outline: as §1

giant foxtail = assay: Test B pre/postemergence giant foxtail; assay type: in vivo, Setaria faberii
Outline: as §1

[1] = Postemergence, Rate 62 g/ha, scale 0 to 10, 0 is no effect, 10 is complete control
[2] = Postemergence, Rate 250 g/ha, scale 0 to 10, 0 no effect, 10 complete control
[3] = Preemergence, Rate 62 g/ha, scale 0 to 10, 0 is no effect, 10 is complete control
[4] = Preemergence, Rate 125 g/ha, scale 0 to 10 (0 no effect, 10 complete control)
[5] = Preemergence, Rate 250 g/ha, scale of 0 to 10 where 0 is no effect and 10 is complete control
[6] = Preemergence, Rate 500 g/ha, scale 0 (no effect) to 10 (complete control)
[7] = Rate 125 g/ha, Postemergence, scale 0 to 10, 0 no effect, 10 complete control
[8] = Rate 500 g/ha, Postemergence, scale 0 to 10, 0 no effect, 10 complete control
[9] = Rate 125 g/ha, Postemergence section (flood test species), scale 0 to 10, 0 no effect, 10 complete control
[10] = Rate 500 g/ha, listed under Postemergence (flood test species), scale 0 to 10, 0 no effect, 10 complete control
[11] = flood test, listed under Postemergence, Rate 250 g/ha, scale 0 to 10, 0 no effect, 10 complete control

Q: What does the source list for Cc1ccccc1-n1c(=O)on(C(=O)N(c2ccc(C#N)cc2)C(C)C)c1=O [Compound 51]?
A: Redroot pigweed plant response rating (pigweed; [1]): 0; Redroot pigweed plant response rating (pigweed; [2]): 0; Plant response rating, Redroot pigweed (pigweed; [3]): 0; Plant response rating, Redroot pigweed (pigweed; [4]): 0; Plant response rating, Redroot pigweed (pigweed; [5]): 0; Redroot pigweed plant response rating (pigweed; [6]): 0; Redroot pigweed plant response rating (pigweed; [7]): 0; Redroot pigweed plant response rating (pigweed; [8]): 0; Morningglory plant response rating (morningglory; [1]): 0; Morningglory plant response rating (morningglory; [2]): 0; Plant response rating, Morningglory (morningglory; [3]): 0; Plant response rating, Morningglory (morningglory; [4]): 0; Plant response rating, Morningglory (morningglory; [5]): 0; Morningglory plant response rating (morningglory; [6]): 0; Morningglory plant response rating (morningglory; [7]): 0; Morningglory plant response rating (morningglory; [8]): 1; Crabgrass plant response rating (crabgrass; [1]): 0; Crabgrass plant response rating (crabgrass; [2]): 3; Plant response rating, Crabgrass (crabgrass; [3]): 0; Plant response rating, Crabgrass (crabgrass; [4]): 0; Plant response rating, Crabgrass (crabgrass; [5]): 2; Crabgrass plant response rating (crabgrass; [6]): 2; Crabgrass plant response rating (crabgrass; [7]): 0; Crabgrass plant response rating (crabgrass; [8]): 4; Cocklebur plant response rating (cocklebur; [1]): 0; Cocklebur plant response rating (cocklebur; [2]): 0; Plant response rating, Cocklebur (cocklebur; [3]): 0; Plant response rating, Cocklebur (cocklebur; [4]): 0; Plant response rating, Cocklebur (cocklebur; [5]): 0; Cocklebur plant response rating (cocklebur; [6]): 0; Cocklebur plant response rating (cocklebur; [7]): 0; Cocklebur plant response rating (cocklebur; [8]): 0; Corn plant response rating (corn; [1]): 0; Corn plant response rating (corn; [2]): 0; Plant response rating, Corn (corn; [3]): 0; Plant response rating, Corn (corn; [4]): 0; Plant response rating, Corn (corn; [5]): 0; Corn plant response rating (corn; [6]): 0; Corn plant response rating (corn; [7]): 0; Corn plant response rating (corn; [8]): 0; Soybean plant response rating (soybean; [1]): 0; Soybean plant response rating (soybean; [2]): 0; Plant response rating, Soybean (soybean; [3]): 0; Plant response rating, Soybean (soybean; [4]): 0; Plant response rating, Soybean (soybean; [5]): 0; Soybean plant response rating (soybean; [6]): 0; Soybean plant response rating (soybean; [7]): 0; Soybean plant response rating (soybean; [8]): 1; Barnyardgrass plant response rating (bamyardgrass; [1]): 0; Barnyardgrass plant response rating (bamyardgrass; [9]): 0; Barnyardgrass plant response rating (bamyardgrass; [10]): 0; Barnyardgrass plant response rating (bamyardgrass; [11]): 0; Wild oats plant response rating (wild oat; [1]): 0; Wild oats plant response rating (wild oat; [2]): 0; Plant response rating, Wild oats (wild oat; [4]): 0; Plant response rating, Wild oats (wild oat; [5]): 0; Wild oats plant response rating (wild oat; [6]): 0; Wild oats plant response rating (wild oat; [7]): 0; Wild oats plant response rating (wild oat; [8]): 0; Rape plant response rating (rape; [1]): 0; Rape plant response rating (rape; [2]): 0; Plant response rating, Rape (rape; [3]): 0; Plant response rating, Rape (rape; [4]): 0; Plant response rating, Rape (rape; [5]): 0; Rape plant response rating (rape; [6]): 0; Rape plant response rating (rape; [7]): 0; Rape plant response rating (rape; [8]): 0; Velvetleaf plant response rating (velvetleaf; [1]): 0; Velvetleaf plant response rating (velvetleaf; [2]): 0; Plant response rating, Velvetleaf (velvetleaf; [3]): 0; Plant response rating, Velvetleaf (velvetleaf; [4]): 0; Plant response rating, Velvetleaf (velvetleaf; [5]): 0; Velvetleaf plant response rating (velvetleaf; [6]): 0; Velvetleaf plant response rating (velvetleaf; [7]): 0; Velvetleaf plant response rating (velvetleaf; [8]): 0; Sugarbeets plant response rating (sugar beet; [1]): 0; Sugarbeets plant response rating (sugar beet; [2]): 0; Plant response rating, Sugarbeets (sugar beet; [3]): 0; Plant response rating, Sugarbeets (sugar beet; [4]): 0; Plant response rating, Sugarbeets (sugar beet; [5]): 0; Sugarbeets plant response rating (sugar beet; [6]): 0; Sugarbeets plant response rating (sugar beet; [7]): 0; Sugarbeets plant response rating (sugar beet; [8]): 0; Rice plant response rating (rice; [1]): 0; Rice plant response rating (rice; [9]): 0; Rice plant response rating (rice; [10]): 0; Rice plant response rating (rice; [11]): 0; Ducksalad plant response rating (duck salad; [1]): 0; Ducksalad plant response rating (duck salad; [9]): 0; Ducksalad plant response rating (duck salad; [10]): 0; Ducksalad plant response rating (duck salad; [11]): 0; Wheat plant response rating (wheat; [1]): 0; Wheat plant response rating (wheat; [2]): 0; Plant response rating, Wheat (wheat; [3]): 0; Plant response rating, Wheat (wheat; [4]): 0; Plant response rating, Wheat (wheat; [5]): 0; Wheat plant response rating (wheat; [6]): 0; Wheat plant response rating (wheat; [7]): 0; Wheat plant response rating (wheat; [8]): 0; Nutsedge plant response rating (purple nutsedge; [1]): 0; Nutsedge plant response rating (purple nutsedge; [2]): 0; Plant response rating, Nutsedge (purple nutsedge; [3]): 0; Plant response rating, Nutsedge (purple nutsedge; [4]): 0; Plant response rating, Nutsedge (purple nutsedge; [5]): 0; Nutsedge plant response rating (purple nutsedge; [6]): 0; Nutsedge plant response rating (purple nutsedge; [7]): 0; Nutsedge plant response rating (purple nutsedge; [8]): 0; Giant foxtail plant response rating (giant foxtail; [1]): 0; Giant foxtail plant response rating (giant foxtail; [2]): 0; Plant response rating, Giant foxtail (giant foxtail; [3]): 0; Plant response rating, Giant foxtail (giant foxtail; [4]): 2; Plant response rating, Giant foxtail (giant foxtail; [5]): 4; Giant foxtail plant response rating (giant foxtail; [6]): 8; Giant foxtail plant response rating (giant foxtail; [7]): 0; Giant foxtail plant response rating (giant foxtail; [8]): 3
